Reference: publication PMC10529594, “Strasseriolides display in vitro and in vivo activity against trypanosomal parasites and cause morphological and size defects in Trypanosoma cruzi” (PLOS Neglected Tropical Diseases, 2023)
pEC50: −log10 of the molar value. Values joined by “and” are separate entries in the source; they are usually repeats but may differ in a detail not shown here. Equal values may be shown once. Read-outs that look alike come from different tables or passages of the source.

Tests used:
[1] = tested on: T. b. brucei 427 bloodstream forms; assay: Resazurin-based T. b. brucei assay; format: cell-based; conditions: Trypanosoma brucei, 72 h, read-out: EC50 T. brucei
Method: Parasites strains adapted to culture in vitro were used. T. b. brucei Lister 427 bloodstream form parasites (information about the identity and genealogy of this strain is available at The Rockefeller University website) were grown in HMI-9 medium supplemented with 10% heat-inactivated fetal bovine serum (iFBS).
Cells in logarithmic phase of growth were added using a Multidrop dispenser (45 μL, 500 bloodstream T. b. brucei parasites per well) to 384-well Corning assay plates already containing 5 μL of each compound and controls, and incubated for 72 hours at 37°C. 10 μL of resazurin were added per well, and the plates were further incubated for 6 hours at 37°C. The final fluorescence was determined at 550–590 nm. Pentamidine at 40 nM and 0.0067% DMSO were used as […] growth controls, respectively.

[2] = tested on: T. cruzi Tulahuen C4 epimastigotes; assay: T. cruzi epimastigotes growth inhibition assay (resazurin); format: cell-based, Trypanosoma cruzi; conditions: for pEC50: Tulahuen C4, 72 h, resazurin; for EC30, epimastigotes / EC70, epimastigotes: from dose-response curve
Method: The Trypanosoma cruzi Tulahuen strain used is a genetically modified strain that expresses the Escherichia coli β-galactosidase gene, lacZ [31]. It was kindly supplied by Marcel Kaiser (Swiss Tropical and Public Health Institute). The T. cruzi Tulahuen C4 strain was cultured in RPMI-1640 supplemented with 10% inactivated FBS (iFBS), 1.7 mM L-glutamine, 100 U/mL penicillin, and […] at 37°C and 5% CO2. L6 rat skeletal muscle cells were purchased from ATCC (reference CRL-1458) and used as host cells for infection with transgenic T. cruzi trypomastigotes. Epimastigotes were obtained by differentiation in LIT medium with 10% iFBS at 28°C from trypomastigote forms.
A resazurin-based assay was set up in 96-well microplates containing 10 μL of test compound at concentrations ranging from 0.39 to 200 μM and log phase parasites seeded at 2 × 10^5 cells per well in a final volume of 100 μL. Maximum DMSO percentage in the well was 0.2%. Positive and negative growth controls were included. Following 72 hour incubation at 28°C with orbital shaking, 10 μL of resazurin solution were added to each well and the plates were returned to the incubator for 4 hours. Resazurin reduction was correlated to cell viability by fluorescence measurement with excitation and emission wavelength bands centered at 550 and 590 nm, respectively, in a Tecan Infinite 200 microplate reader.

[3] = tested on: human macrophage THP-1 cells; assay: Cytotoxicity in THP-1 macrophages (MTT); format: cell-based; conditions: for pEC50: Homo sapiens, read-out: EC50 THP-1
Method: Cellular toxicity of compounds in the human macrophage host TPH-1 cell line was determined using the colorimetric MTT-based assay as previously described.
THP-1 cells were seeded at 3 × 10^4 cells/well in 96-well plates and were differentiated to macrophages with 20 ng/ml of PMA treatment for 48 h followed by 24 h incubation in fresh medium. Strasseriolides were added at increasing concentrations up to 50 μM and cells were further incubated at 37°C for 72 h. 10 μL of MTT (5 mg/mL in PBS) were added to each well, and plates were incubated for an additional period of 8 h at 37°C. Formazan crystals were dissolved by adding 50 μL of 20% SDS and absorbance was read at 595 nm using a microplate reader.

[4] = tested on: L. donovani MHOM/ET/67/HU3 transgenic intracellular amastigotes; assay: L. donovani intracellular amastigote assay (luciferase, THP-1 macrophages); format: cell-based; conditions: Leishmania donovani, THP-1, 72 h, read-out: EC50 L. donovani
Method: Leishmania donovani MHOM/ET/67/HU3 cells with the luciferase gene integrated into the parasite genome was obtained as described. Parasites were grown at 28°C in RPMI 1640-modified medium supplemented with 20% heat-inactivated fetal bovine serum (iFBS, Invitrogen) with […] of hygromycin B.
THP-1 cells were differentiated into macrophages with 20 ng/mL of PMA in a 96-well plate at 3 × 10^4 cells per well for 48 hours followed by 24 hours of culture in fresh medium. Cells were then infected with transgenic stationary L. donovani MHOM/ET/67/HU3 promastigotes expressing the luciferase gene at a multiplicity of infection (MOI) of 10. A volume of 100 μL of culture media containing the test compounds was added to each well and the plates were incubated at 37°C for 72 hours. Luminescence was measured using the Promega kit luciferase assay system.

[5] = tested on: T. cruzi Tulahuen C4 trypomastigotes; assay: T. cruzi trypomastigote viability assay (resazurin fluorescence); format: cell-based, Trypanosoma cruzi; conditions: Tulahuen C4, 72 hours at 37°C
Method: Tulahuen T. cruzi trypomastigotes were recovered 6 days post infection from the supernatant of harvested infected L6 cells cultures after 3 hours at 37°C. 90 μL of parasite culture at a density of 5 × 10^6 cells in RPMI 1640 media were dispensed into 96 Nunc flat bottom assay plates containing 10 μL of each compound.
In the fluorescence assay, plates were incubated for 24 and 48 hours after which 10 μL of the resazurin solution were added to each well. Plates were further incubated for 24 hours and fluorescence was measured at 550/590 nm using a Tecan Infinite 200 microplate reader. […] Final maximal DMSO percentage in the well was 0.1% and compound concentrations ranged from 0.2 to 100 μM.

[6] = tested on: T. cruzi epimastigotes; assay: FACS analysis of T. cruzi epimastigotes (cell cycle, size and complexity); format: cell-based, Trypanosoma cruzi; conditions: for % Cells G1, Average / % Cells G2/M, Average / % Cells S, Average / % Cells sub-G1, Average / % Cells G1, individual replicates / % Cells G2/M, individual replicates / % Cells S, individual replicates / % Cells post G2/M, individual replicates / % Cells sub-G1, individual replicates: 72-hour drug exposure, FACS with PI staining; for Foward Scatter (FSC) - Geometric Mean, single experiment / Foward Scatter (FSC) - Geometric Mean, Average / size reduction with respect to untreated parasites: 72 h
Method: FACS analysis was used to study cell cycle progression and cellular parameters such as size and complexity. 5 × 10^6 T. cruzi epimastigotes were harvested by centrifugation at 1,000×g and 4°C after 72 hours of incubation in a 6-well plate in the presence and in absence of test compounds. Pellets of cells were washed with 5 mL of PBS and fixed in a solution of 70% ice-cold ethanol/PBS at -20°C overnight. Cells were then collected by centrifugation, washed with PBS and stained with 40 μg/mL of propidium iodide in PBS containing 10 μg/mL of RNase A at 37°C for 30 minutes. Fluorescence was monitored with a Becton Dickinson FACSCalibur using BD CellQuest Pro version 4.0.2 software with a total of 10,000 events acquired for each sample. The different cell populations as well as mean cellular parameters were determined by FlowJo software.

[7] = Trypanosoma cruzi, TULAHUEN, 72 h

C/C1=C\[C@H](C)CCC(=O)/C(C)=C/[C@H](C)C[C@@H](C)CC[C@@H]([C@@H](C)C(=O)O)OC(=O)[C@@H](C)C1 [Strasseriolide A, strasseriolide A]
pEC50 [1]: 3.56
cell growth reduction, epimastigotes ([2]; 72-hour exposure, 50 μM): less than 50%
pEC50 [2, 7]: < 4.30
Selectivity index intracellular L. donovani versus THP-1 cells [3]: > 8
pEC50 ([3]; THP-1, 72 h, MTT): < 3.90
pEC50 [4]: < 4.82
pEC50 [5, 7]: < 4.60

C/C1=C\[C@H](C)C(=O)C[C@@H](O)/C(C)=C/[C@H](C)C[C@@H](C)CC[C@@H]([C@@H](C)C(=O)O)OC(=O)[C@@H](C)C1 [Strasseriolide C, strasseriolide C]
pEC50 [1]: 4.22
EC30, epimastigotes ([2]; 72 h): 28 µM
EC70, epimastigotes ([2]; 72 h): 47 µM
pEC50 [2, 7]: 4.49
Selectivity index intracellular L. donovani versus THP-1 cells [3]: 68
pEC50 ([3]; THP-1, 72 h, MTT): 3.35
% Cells G1, Average ([6]; EC30, average): 50.2633%
% Cells G2/M, Average ([6]; EC30, average): 31.3463%
% Cells S, Average ([6]; EC30, average): 16.5971%
% Cells sub-G1, Average ([6]; EC30, average): 3.151%
% Cells G1, individual replicates ([6]; EC30, single replicates): 52.1473% and 48.3792%
% Cells G2/M, individual replicates ([6]; EC30, single replicates): 31.009% and 31.6835%
% Cells S, individual replicates ([6]; EC30, single replicates): 14.5117% and 18.6825%
% Cells post G2/M, individual replicates ([6]; EC30, single replicates): -0.5484% and -2.167%
% Cells sub-G1, individual replicates ([6]; EC30, single replicates): 2.8804% and 3.422%
% Cells G1, Average ([6]; EC70, average): 52.4319%
% Cells G2/M, Average ([6]; EC70, average): 31.1794%
% Cells S, Average ([6]; EC70, average): 14.7538%
% Cells sub-G1, Average ([6]; EC70, average): 3.07%
% Cells G1, individual replicates ([6]; EC70, single replicates): 54.5779% and 50.2858%
% Cells G2/M, individual replicates ([6]; EC70, single replicates): 30.5655% and 31.7933%
% Cells S, individual replicates ([6]; EC70, single replicates): 10.63% and 18.8776%
% Cells post G2/M, individual replicates ([6]; EC70, single replicates): -0.9732% and -1.896%
% Cells sub-G1, individual replicates ([6]; EC70, single replicates): 5.2% and 0.9392%
Foward Scatter (FSC) - Geometric Mean, single experiment ([6]; EC30): 81.2 and 80.4
Foward Scatter (FSC) - Geometric Mean, Average ([6]; EC30, control 96.65): 80.8
Foward Scatter (FSC) - Geometric Mean, single experiment ([6]; EC70): 72.5 and 74.3
Foward Scatter (FSC) - Geometric Mean, Average ([6]; EC70, control 96.65): 73.4
size reduction with respect to untreated parasites ([6]; at EC30): 16%
size reduction with respect to untreated parasites ([6]; at EC70): 22%
pEC50 [4]: 5.18
pEC50 [5, 7]: 5.42
pEC50 [5]: 5.42

C/C1=C\[C@H](C)CC[C@@H](O)/C(C)=C/[C@H](C)C[C@@H](C)CC[C@@H]([C@@H](C)C(=O)O)OC(=O)[C@@H](C)C1 [Strasseriolide B, strasseriolide B]
pEC50 [1]: 4.57
pEC50 [2, 7]: > 6.40
pEC50 [2]: > 6.41
Selectivity index intracellular L. donovani versus THP-1 cells [3]: 4962
pEC50 ([3]; THP-1, 72 h): 3.79
pEC50 [4]: 7.49
pEC50 [5, 7]: > 6.70

O=C(Cn1ccnc1[N+](=O)[O-])NCc1ccccc1 [Benznidazole, benznidazole]
EC30, epimastigotes ([2]; 72 h): 7.5 µM
EC70, epimastigotes ([2]; 72 h): 22.5 µM
EC90 [2, 7]: 96 µM
pEC50 [2, 7]: 4.89
Foward Scatter (FSC) - Geometric Mean, single experiment ([6]; EC30): 93.4 and 92.7
Foward Scatter (FSC) - Geometric Mean, Average ([6]; EC30, control 96.65): 93.05
Foward Scatter (FSC) - Geometric Mean, single experiment ([6]; EC70): 96.7 and 91.2
Foward Scatter (FSC) - Geometric Mean, Average ([6]; EC70, control 96.65): 93.95
Foward Scatter (FSC) - Geometric Mean, single experiment ([6]; EC90): 75.3 and 74.1
Foward Scatter (FSC) - Geometric Mean, Average ([6]; EC90, control 96.65): 74.7
pEC50 [5, 7]: 5.41
